{"source": "patent US11058673B2", "about": "“Dosage regimen of MDM2 inhibitor for treating cancers” (DAIICHI SANKYO COMPANY, LIMITED, priority 2015, dated 2021)", "key": {"[1]": {"tested_on": "advanced solid tumor or lymphoma", "test": "Phase 1 clinical study: tumor response (RECIST v1.1) and progression free survival, overall population", "format": "in vivo, human", "experimental": "(§1) • 1. Has a histologically or cytologically documented advanced solid tumor or lymphoma that has relapsed from or is refractory to standard treatment, or for which no standard treatment is available. • 2. Man or woman≥18 years old. • 3. Has an Eastern Cooperative Oncology Group (ECOG) performance status 0-1. • 4. Has adequate bone marrow function, adequate renal function, adequate hepatic function, and adequate blood clotting function.\n(§2) Tumor assessment Tumor assessment was performed at baseline, within every 2 cycles while the subject remained on study for the first 9 cycles and then every 3 cycles thereafter (start of Cycles 3, 5, 7, and 9, then Cycles 12, 15, etc.).\n(§3) Tumor Response Response assessment was performed according to the Schedule of Events or if disease progression was suspected. Radiographic assessment included computerized tomography (CT) of all affected sites. In addition, subjects with lymphoma underwent a (^18F) fluorodeoxyglucose-positron emission tomography FDG-PET scan. Tumor responses were assessed by the physicians according to RECIST 1.1 criteria for subjects with solid tumors and revised IWG criteria for subjects with lymphoma. Descriptive statistics for the greatest percent change in the sum of longest dimensions (SLD) of measurable tumors were provided. A waterfall plot of the greatest percent change from screening in the SLD for each subject was presented for subjects with advanced solid malignancies and lymphomas. In addition, descriptive statistics for FDG-PET scans were provided for lymphoma subjects according to revised IWG criteria."}, "[2]": {"format": "in vivo, human", "conditions": "for maximum tolerated dose (MTD): oral", "experimental": "(§4) Dosage regimen Compound 2 was administered as an oral capsule comprising a pharmaceutically acceptable carrier (diluting agent, plasticizer, disintegrator and lubricant). Compound 2 was administered to the subjects once daily on Days 1 to 21 of a 28-day cycle (QD21/28). An alternative drug administration schedule was considered after establishing the maximum tolerated dose (MTD) of Compound 2 in solid tumor and/or lymphoma subjects using the above schedule, and upon review of the human safety. Subjects were administered Compound 2 in fasting conditions by avoiding food for 2 hours before and 1 hour after drug administration. Dose-escalation of Compound 2 to determine the MTD was guided by the modified continuous reassessment method (mCRM) using a Bayesian logistic regression model (BLRM) following escalation with overdose control (EWOC) principle. Dose escalation began in subjects with advanced solid tumors or lymphomas with a starting dose of Compound 2 at 15 mg/day based on the Highest Non-Severely Toxic Dose (HNSTD) of 3 mg/kg in dogs.\nDose Limiting Toxicity Definition A DLT was defined as any treatment-emergent adverse event (TEAE) not attributable to disease or disease-related processes that occurred during the observation period (Cycle 1) in each dose-level cohort and was grade 3 or higher according to NCI CTCAE, version 4. Subjects who were unable to complete at least 75% of the prescribed doses (i.e., 16 days) of Compound 2 in the first 21 days as a result of nondisease-related≥grade 2 adverse event (AE) were considered to have a DLT.\nTreatment Arms In this open-label, single-arm, dose escalation study, each subject received Compound 2 orally once daily on Days 1 to 21 of a 28-day cycle.\nSafety Parameters The safety profile was based on AEs, physical examination findings, vital sign measurements, clinical laboratory measurements, and ECG recordings. All subjects receiving at least 1 dose of Compound 2 were included in the safety analyses."}, "Non-Liposarcoma": {"tested_on": "Non-Liposarcoma", "test": "Phase 1 clinical study: progression free survival, non-liposarcoma subjects", "format": "in vivo, human", "conditions": "Non-Liposarcoma (N = 14)", "experimental": "as §1, §2, §3"}, "Liposarcoma": {"tested_on": "Liposarcoma", "test": "Phase 1 clinical study: progression free survival, liposarcoma subjects", "format": "in vivo, human", "conditions": "Liposarcoma (N = 13)", "experimental": "as §1, §2, §3"}, "[3]": {"test": "Highest Non-Severely Toxic Dose in dogs", "format": "in vivo", "experimental": "as §4"}, "[4]": {"conditions": "Overall (N = 27), Kaplan-Meier estimate"}}, "note": "Read-outs that look alike come from different tables or passages of the source.", "data": [{"smiles": "CC1(C)CCC2(CC1)N[C@@H](C(=O)N[C@@H]1CC[C@@H](C(N)=O)OC1)[C@H](c1ccnc(Cl)c1F)[C@]21C(=O)Nc2cc(Cl)ccc21.Cc1ccc(S(=O)(=O)O)cc1", "note": "[Compound 2, (3′R,4′S,5′R)—N-[(3R,6S)-6-carbamoyltetrahydro-2H-pyran-3-yl]-6″-chloro-4′-(2-chloro-3-fluoropyridin-4-yl)-4,4-dimethyl-2″-oxo-1″,2″-dihydrodispiro[cyclohexane-1,2′-pyrrolidine-3′,3″-indole]-5′-carboxamide mono(4-methylbenzenesulfonate) monohydrate]", "values": [{"measurement": "Subjects without Events (Censored) (%)", "setting": "[1]; Overall (N = 27)", "result": "(55.6) %"}, {"measurement": "Progression-Free Survival, Median", "setting": "[1]; [4]", "result": 5.72, "unit": "months"}, {"measurement": "Rate (%) of Being Alive Without Progresion at Least 3 months", "setting": "[1]; [4]", "result": 74.5, "unit": "%"}, {"measurement": "Rate (%) of Being Alive Without Progresion at Least 6 months", "setting": "[1]; [4]", "result": 47.4, "unit": "%"}, {"measurement": "Rate (%) of Being Alive Without Progresion at Least 9 months", "setting": "[1]; [4]", "result": 29.7, "unit": "%"}, {"measurement": "Rate (%) of Being Alive Without Progresion at Least 12 months", "setting": "[1]; [4]", "result": 29.7, "unit": "%"}, {"measurement": "Subjects with Events (%)", "setting": "[1]; PFS events, Overall (N = 27)", "result": "(44.4) %"}, {"measurement": "subjects with stable disease (SD) as the best tumor response", "setting": "[1]; RECIST v1.1, out of 23 evaluable subjects", "result": 21, "unit": "subjects"}, {"measurement": "subjects with >10% tumor shrinkage", "setting": "[1]; of 23 evaluable subjects", "result": 3, "unit": "subjects"}, {"measurement": "TEAE anemia", "setting": "[2]; human, in vivo", "result": 38.2, "unit": "%"}, {"measurement": "TEAE constipation", "setting": "[2]; human, in vivo", "result": 23.5}, {"measurement": "TEAE decreased appetite", "setting": "[2]; human, in vivo", "result": 50.0, "unit": "%"}, {"measurement": "TEAE diarrhea", "setting": "[2]; human, in vivo", "result": 35.3, "unit": "%"}, {"measurement": "TEAE dysgeusia", "setting": "[2]; human, in vivo", "result": 20.6, "unit": "%"}, {"measurement": "TEAE dyspnoea", "setting": "[2]; human, in vivo", "result": 26.5, "unit": "%"}, {"measurement": "TEAE fatigue", "setting": "[2]; human, in vivo", "result": 52.9, "unit": "%"}, {"measurement": "TEAE grade 3 or higher in severity", "setting": "[2]; human, in vivo", "result": 55.9, "unit": "%"}, {"measurement": "TEAE hyperglycemia", "setting": "[2]; human, in vivo", "result": 29.4, "unit": "%"}, {"measurement": "TEAE hypoalbuminemia", "setting": "[2]; human, in vivo", "result": 32.4, "unit": "%"}, {"measurement": "TEAE nausea", "setting": "[2]; human, in vivo", "result": 64.7, "unit": "%"}, {"measurement": "TEAE neutropenia", "setting": "[2]; human, in vivo", "result": 17.6, "unit": "%"}, {"measurement": "TEAE peripheral edema", "setting": "[2]; human, in vivo", "result": 17.6, "unit": "%"}, {"measurement": "TEAE thrombocytopenia", "setting": "[2]; human, in vivo", "result": 32.4, "unit": "%"}, {"measurement": "TEAE vomiting", "setting": "[2]; human, in vivo", "result": 35.3, "unit": "%"}, {"measurement": "Treatment emergent adverse events (TEAE) of any grade at any treatment cycle irrespective of causality", "setting": "[2]; human, in vivo", "result": 97.1, "unit": "%"}, {"measurement": "most common drug-related TEAEs", "setting": "[2]; human, in vivo", "result": "hematological (thrombocytopenia, anemia, neutropenia), gastrointestinal (nausea, vomiting and diarrhea), and fatigue"}, {"measurement": "total subjects who experienced DLTs", "setting": "[2]; human, in vivo", "result": 6, "unit": "subjects"}, {"measurement": "maximum tolerated dose (MTD)", "setting": "[2]; QD 21/28 schedule", "result": 120, "unit": "mg"}, {"measurement": "maximum tolerated dose (MTD)", "setting": "[2]; QD 28/28 schedule", "result": 90, "unit": "mg"}, {"measurement": "dose tolerated", "setting": "[2]; patients with hematological malignancies", "result": 160, "unit": "mg"}, {"measurement": "Subjects without Events (Censored) (%)", "setting": "Non-Liposarcoma", "result": "(35.7) %"}, {"measurement": "Progression-Free Survival, Median", "setting": "Non-Liposarcoma; Kaplan-Meier estimate", "result": 4.04, "unit": "months"}, {"measurement": "Rate (%) of Being Alive Without Progresion at Least 3 months", "setting": "Non-Liposarcoma; Kaplan-Meier estimate", "result": 58.4, "unit": "%"}, {"measurement": "Rate (%) of Being Alive Without Progresion at Least 6 months", "setting": "Non-Liposarcoma; Kaplan-Meier estimate", "result": 23.4, "unit": "%"}, {"measurement": "Rate (%) of Being Alive Without Progresion at Least 9 months", "setting": "Non-Liposarcoma; Kaplan-Meier estimate", "result": 11.7, "unit": "%"}, {"measurement": "Rate (%) of Being Alive Without Progresion at Least 12 months", "setting": "Non-Liposarcoma; Kaplan-Meier estimate", "result": 11.7, "unit": "%"}, {"measurement": "Subjects with Events (%)", "setting": "Non-Liposarcoma; PFS events", "result": "(64.3) %"}, {"measurement": "Subjects without Events (Censored) (%)", "setting": "Liposarcoma", "result": "(76.9) %"}, {"measurement": "Rate (%) of Being Alive Without Progresion at Least 3 months", "setting": "Liposarcoma; Kaplan-Meier estimate", "result": 91.7, "unit": "%"}, {"measurement": "Rate (%) of Being Alive Without Progresion at Least 6 months", "setting": "Liposarcoma; Kaplan-Meier estimate", "result": 76.4, "unit": "%"}, {"measurement": "Rate (%) of Being Alive Without Progresion at Least 9 months", "setting": "Liposarcoma; Kaplan-Meier estimate", "result": 57.3, "unit": "%"}, {"measurement": "Rate (%) of Being Alive Without Progresion at Least 12 months", "setting": "Liposarcoma; Kaplan-Meier estimate", "result": 57.3, "unit": "%"}, {"measurement": "Subjects with Events (%)", "setting": "Liposarcoma; PFS events", "result": "(23.1) %"}, {"measurement": "Highest Non-Severely Toxic Dose (HNSTD)", "setting": "[3]", "result": 3, "unit": "mg/kg"}]}]}
